Measured values published in ChEMBL document CHEMBL4680117, “Discovery of 3,3'-pyrrolidinyl-spirooxindoles as cardioprotectant prohibitin ligands” (Eur J Med Chem, 2020).
Activity calls are given as the source filed them. The calls are words filed in the database; no cut-off is given here.

The molecules below were run on H9c2 (assay: Cardioprotective activity against rat H9c2 cells assessed as inhibition of doxorubicin-induced ROS production at 10 to 30 nM preincubated for 14 hrs followed by loading with DCFDA dye for 45 mins and later exposed to doxorubicin for 3 hrs by DCF-DA probe based fluorescence assay). Settings: dose 10-30 nM, time 1065.0 min.
Format: functional, cell-based

`CC(C)N1CC[C@@]2(C(=O)Nc3ccccc32)[C@@H]1c1ccccc1` was tested, and the Activity was “Active”.
In the case of `COc1cc(OC)c2c(c1)O[C@@]1(c3ccc(Br)cc3)[C@H](c3ccccc3)C[C@@H](O)[C@@]21O`, the Activity is reported as “Active”.
`C=CCN1CC[C@@]2(C(=O)Nc3ccccc32)[C@@H]1c1ccccc1` was tested, and the Activity was “Active”.

The molecules below were run on MCF7 (assay: Cytotoxicity against human MCF7 cells). Settings: not given.
Format: functional, cell-based

In the case of `O=C1Nc2ccccc2[C@]12CCNC2c1ccccc1` (stereo not given in full), the EC50 is reported as 3.5 µM.

The molecules below were run on H9c2 (assay: Cardioprotective activity against rat H9c2 cells assessed as inhibition of doxorubicin-induced cytotoxicity at 10 to 30 nM preincubated for 10 hrs followed by doxorubicin treatment and measured after 14 hrs by cQuant based analysis). Settings: dose 10-30 nM, time 24.0 hrs.
Format: functional, cell-based

For `CC(C)N1CC[C@@]2(C(=O)Nc3ccccc32)[C@@H]1c1ccccc1`, the Activity was “Active”.
`COc1cc(OC)c2c(c1)O[C@@]1(c3ccc(Br)cc3)[C@H](c3ccccc3)C[C@@H](O)[C@@]21O` was tested, and the Activity was “Active”.
For `C=CCN1CC[C@@]2(C(=O)Nc3ccccc32)[C@@H]1c1ccccc1`, the Activity was “Active”.

These molecules were tested on H9c2 (assay: Binding affinity to PHB1 in rat H9c2 cells incubated for overnight by AffiGel 10 beads pull down based western blot analysis). Settings: not given.
Format: cell-based

With `O=C(CCC(=O)ON1C(=O)CCC1=O)NCCNC(=O)CNCCOCCOCCOCCN1C(=O)C2(CCNC2c2ccccc2)c2ccccc21` (stereo not given) the Activity was “Active”.
`O=C(CCC(=O)ON1C(=O)CCC1=O)NCCNC(=O)CNCCOCCOCCOCCN1CCC2(C(=O)Nc3ccccc32)C1c1ccccc1` (stereo not given) was tested, and the Activity was “Active”.

The molecules below were run on H9c2 (assay: Cardioprotective activity against rat H9c2 cells assessed as inhibition of doxorubicin-induced cytotoxicity by measuring increase in cell suvival at 1 nM preincubated for 10 hrs followed by doxorubicin treatment and measured after 14 hrs by cQuant based analysis (reference value: 0%)). Settings: time 24 hrs.
Format: functional
Set-up: scale not given: the % may be the effect or the level left

First: O=C1N[C@@H](c2ccccc2)[C@]2(C(=O)Nc3ccccc32)[C@H]1O
Second: O=C1Nc2ccccc2[C@]12CCNC2c1ccccc1 (stereo not given in full)
The Activity of the first is lower: 5.8% for the first, 11.3% for the second.

First: CN1C(=O)[C@@]2(c3ccccc31)[C@H](c1ccccc1)N(C)C(=O)[C@@H]2O
Second: CN1CC[C@@]2(C(=O)Nc3ccccc32)[C@@H]1c1ccccc1
The Activity of the first is lower: 2.9% for the first, 7.6% for the second.

Going from `CC(C)N1CC[C@@]2(C(=O)Nc3ccccc32)[C@@H]1c1ccccc1` to `CCN1CC[C@@]2(C(=O)Nc3ccccc32)[C@@H]1c1ccccc1`, the Activity falls from 10.7% to 7.4%.

Going from `O=C(CN1CC[C@@]2(C(=O)Nc3ccccc32)[C@@H]1c1ccccc1)N1CCOCC1` to `CN(C)C(=O)CN1CC[C@@]2(C(=O)Nc3ccccc32)[C@@H]1c1ccccc1`, the Activity falls from 0.3% to 0.2%.

Going from `O=C1Nc2cc(Br)ccc2C12CCNC2c1ccccc1` (stereo not given) to `Cc1ccc2c(c1)NC(=O)C21CCNC1c1ccccc1` (stereo not given), the Activity falls from 6.5% to 2.6%.

Going from `O=C1Nc2ccccc2[C@]12CCN(C1CCCC1)[C@H]2c1ccccc1` to `CCCN1CC[C@@]2(C(=O)Nc3ccccc32)[C@@H]1c1ccccc1`, the Activity rises from 0.2% to 0.8%.

First: COc1cc(OC)c2c(c1)O[C@@]1(c3ccc(Br)cc3)[C@H](c3ccccc3)C[C@@H](O)[C@@]21O
Second: COC(=O)[C@H]1C[C@]2(C(=O)Nc3ccccc32)[C@@H](c2ccccc2)N1
The Activity of the first is higher: 9.7% for the first, 6.4% for the second.

First: CCCCN1CC[C@@]2(C(=O)Nc3ccccc32)[C@@H]1c1ccccc1
Second: C=CCN1CC[C@@]2(C(=O)Nc3ccccc32)[C@@H]1c1ccccc1
The Activity of the first is lower: 5.7% for the first, 11.6% for the second.

Molecule `COC(=O)[C@H]1C[C@@]2(C(=O)Nc3ccccc32)[C@H](c2ccccc2)N1` has an Activity of 7.1%.

What follows are molecules tested on H9c2 (assay: Cardioprotective activity against rat H9c2 cells assessed as inhibition of doxorubicin-induced ROS production at 0.3 nM preincubated for 14 hrs followed by loading with DCFDA dye for 45 mins and later exposed to doxorubicin for 3 hrs by DCF-DA probe based fluorescence assay (reference value: 0%)). Settings: H9c2, 17.75 h, time 1065 min.
Format: functional

Going from `O=C1N[C@@H](c2ccccc2)[C@]2(C(=O)Nc3ccccc32)[C@H]1O` to `O=C1Nc2ccccc2[C@]12CCNC2c1ccccc1` (stereo not given in full), the inhibition at 0.0003 µM rises from 6.25% to 12.5%.

First: CN1C(=O)[C@@]2(c3ccccc31)[C@H](c1ccccc1)N(C)C(=O)[C@@H]2O
Second: CN1CC[C@@]2(C(=O)Nc3ccccc32)[C@@H]1c1ccccc1
The inhibition at 0.0003 µM of the first is lower: 3.2% for the first, 9.4% for the second.

First: CC(C)N1CC[C@@]2(C(=O)Nc3ccccc32)[C@@H]1c1ccccc1
Second: CCN1CC[C@@]2(C(=O)Nc3ccccc32)[C@@H]1c1ccccc1
The inhibition at 0.0003 µM of the first is higher: 14.3% for the first, 9.4% for the second.

`O=C(CN1CC[C@@]2(C(=O)Nc3ccccc32)[C@@H]1c1ccccc1)N1CCOCC1` and `CN(C)C(=O)CN1CC[C@@]2(C(=O)Nc3ccccc32)[C@@H]1c1ccccc1` are the same in inhibition at 0.0003 µM: 0% for the first, 0% for the second.

Compared with `O=C1Nc2cc(Br)ccc2C12CCNC2c1ccccc1` (stereo not given), `Cc1ccc2c(c1)NC(=O)C21CCNC1c1ccccc1` (stereo not given) is lower in inhibition at 0.0003 µM: 3.2% for the first, 0% for the second.

Going from `O=C1Nc2ccccc2[C@]12CCN(C1CCCC1)[C@H]2c1ccccc1` to `CCCN1CC[C@@]2(C(=O)Nc3ccccc32)[C@@H]1c1ccccc1`, the inhibition at 0.0003 µM rises from 0% to 3.1%.

Going from `COc1cc(OC)c2c(c1)O[C@@]1(c3ccc(Br)cc3)[C@H](c3ccccc3)C[C@@H](O)[C@@]21O` to `COC(=O)[C@H]1C[C@]2(C(=O)Nc3ccccc32)[C@@H](c2ccccc2)N1`, the inhibition at 0.0003 µM falls from 9.5% to 3.1%.

Compared with `CCCCN1CC[C@@]2(C(=O)Nc3ccccc32)[C@@H]1c1ccccc1`, `C=CCN1CC[C@@]2(C(=O)Nc3ccccc32)[C@@H]1c1ccccc1` is higher in inhibition at 0.0003 µM: 6.2% for the first, 12.7% for the second.

Molecule `COC(=O)[C@H]1C[C@@]2(C(=O)Nc3ccccc32)[C@H](c2ccccc2)N1` has an inhibition at 0.0003 µM of 2.9%.

These molecules were tested on H9c2 (assay: Cardioprotective activity against rat H9c2 cells assessed as inhibition of doxorubicin-induced ROS production at 1 nM preincubated for 14 hrs followed by loading with DCFDA dye for 45 mins and later exposed to doxorubicin for 3 hrs by DCF-DA probe based fluorescence assay (reference value: 0%)). Settings: H9c2, 17.75 h, time 1065 min.
Format: functional

First: O=C1N[C@@H](c2ccccc2)[C@]2(C(=O)Nc3ccccc32)[C@H]1O
Second: O=C1Nc2ccccc2[C@]12CCNC2c1ccccc1 (stereo not given in full)
The inhibition at 0.001 µM of the first is higher: 21.9% for the first, 18.8% for the second.

Compared with `CN1C(=O)[C@@]2(c3ccccc31)[C@H](c1ccccc1)N(C)C(=O)[C@@H]2O`, `CN1CC[C@@]2(C(=O)Nc3ccccc32)[C@@H]1c1ccccc1` is higher in inhibition at 0.001 µM: 2.1% for the first, 15.6% for the second.

First: CC(C)N1CC[C@@]2(C(=O)Nc3ccccc32)[C@@H]1c1ccccc1
Second: CCN1CC[C@@]2(C(=O)Nc3ccccc32)[C@@H]1c1ccccc1
The inhibition at 0.001 µM of the first is higher: 20.5% for the first, 12.5% for the second.

Compared with `O=C(CN1CC[C@@]2(C(=O)Nc3ccccc32)[C@@H]1c1ccccc1)N1CCOCC1`, `CN(C)C(=O)CN1CC[C@@]2(C(=O)Nc3ccccc32)[C@@H]1c1ccccc1` is higher in inhibition at 0.001 µM: 6.2% for the first, 9.4% for the second.

Going from `O=C1Nc2cc(Br)ccc2C12CCNC2c1ccccc1` (stereo not given) to `Cc1ccc2c(c1)NC(=O)C21CCNC1c1ccccc1` (stereo not given), the inhibition at 0.001 µM falls from 6.5% to 3.2%.

First: O=C1Nc2ccccc2[C@]12CCN(C1CCCC1)[C@H]2c1ccccc1
Second: CCCN1CC[C@@]2(C(=O)Nc3ccccc32)[C@@H]1c1ccccc1
The inhibition at 0.001 µM of the first is higher: 12.5% for the first, 6.2% for the second.

First: COc1cc(OC)c2c(c1)O[C@@]1(c3ccc(Br)cc3)[C@H](c3ccccc3)C[C@@H](O)[C@@]21O
Second: COC(=O)[C@H]1C[C@]2(C(=O)Nc3ccccc32)[C@@H](c2ccccc2)N1
The inhibition at 0.001 µM of the first is higher: 15.9% for the first, 9.4% for the second.

Going from `CCCCN1CC[C@@]2(C(=O)Nc3ccccc32)[C@@H]1c1ccccc1` to `C=CCN1CC[C@@]2(C(=O)Nc3ccccc32)[C@@H]1c1ccccc1`, the inhibition at 0.001 µM rises from 12.5% to 20.6%.

With `COC(=O)[C@H]1C[C@@]2(C(=O)Nc3ccccc32)[C@H](c2ccccc2)N1` the inhibition at 0.001 µM was 2.7%.

The molecules below were run on H9c2 (assay: Binding affinity to PHB1/2 in rat H9c2 cells assessed as induction of STAT3 phosphorylation at 10 nM incubated for 10 to 40 mins by western blot analysis). Settings: time 10-40 min.
Format: cell-based

`CC(C)N1CC[C@@]2(C(=O)Nc3ccccc32)[C@@H]1c1ccccc1` was tested, and the Activity was “Active”.

What follows are molecules tested on H9c2 (assay: Binding affinity to PHB2 in rat H9c2 cells incubated for overnight by AffiGel 10 beads pull down based western blot analysis). Settings: not given.
Format: cell-based

`O=C(CCC(=O)ON1C(=O)CCC1=O)NCCNC(=O)CNCCOCCOCCOCCN1C(=O)C2(CCNC2c2ccccc2)c2ccccc21` (stereo not given) was tested, and the Activity was “Active”.
`O=C(CCC(=O)ON1C(=O)CCC1=O)NCCNC(=O)CNCCOCCOCCOCCN1CCC2(C(=O)Nc3ccccc32)C1c1ccccc1` (stereo not given) was tested, and the Activity was “Active”.

The molecules below were run on H9c2 (assay: Cardioprotective activity against rat H9c2 cells assessed as inhibition of doxorubicin-induced cytotoxicity by measuring increase in cell suvival at 0.3 nM preincubated for 10 hrs followed by doxorubicin treatment and measured after 14 hrs by cQuant based analysis (reference value: 0%)). Settings: time 24 hrs.
Format: functional
Set-up: scale not given: the % may be the effect or the level left

First: O=C1N[C@@H](c2ccccc2)[C@]2(C(=O)Nc3ccccc32)[C@H]1O
Second: O=C1Nc2ccccc2[C@]12CCNC2c1ccccc1 (stereo not given in full)
The Activity of the first is lower: 3% for the first, 7.7% for the second.

First: CN1C(=O)[C@@]2(c3ccccc31)[C@H](c1ccccc1)N(C)C(=O)[C@@H]2O
Second: CN1CC[C@@]2(C(=O)Nc3ccccc32)[C@@H]1c1ccccc1
The Activity of the first is lower: 1.9% for the first, 5.4% for the second.

Compared with `CC(C)N1CC[C@@]2(C(=O)Nc3ccccc32)[C@@H]1c1ccccc1`, `CCN1CC[C@@]2(C(=O)Nc3ccccc32)[C@@H]1c1ccccc1` is lower in Activity: 6.7% for the first, 6% for the second.

Compared with `O=C(CN1CC[C@@]2(C(=O)Nc3ccccc32)[C@@H]1c1ccccc1)N1CCOCC1`, `CN(C)C(=O)CN1CC[C@@]2(C(=O)Nc3ccccc32)[C@@H]1c1ccccc1` is higher in Activity: 0.3% for the first, 1.4% for the second.

Compared with `O=C1Nc2cc(Br)ccc2C12CCNC2c1ccccc1` (stereo not given), `Cc1ccc2c(c1)NC(=O)C21CCNC1c1ccccc1` (stereo not given) is lower in Activity: 1.1% for the first, 0.3% for the second.

Compared with `O=C1Nc2ccccc2[C@]12CCN(C1CCCC1)[C@H]2c1ccccc1`, `CCCN1CC[C@@]2(C(=O)Nc3ccccc32)[C@@H]1c1ccccc1` is lower in Activity: 2.6% for the first, 1.3% for the second.

Compared with `COc1cc(OC)c2c(c1)O[C@@]1(c3ccc(Br)cc3)[C@H](c3ccccc3)C[C@@H](O)[C@@]21O`, `COC(=O)[C@H]1C[C@]2(C(=O)Nc3ccccc32)[C@@H](c2ccccc2)N1` is higher in Activity: 3.5% for the first, 4% for the second.

Compared with `CCCCN1CC[C@@]2(C(=O)Nc3ccccc32)[C@@H]1c1ccccc1`, `C=CCN1CC[C@@]2(C(=O)Nc3ccccc32)[C@@H]1c1ccccc1` is higher in Activity: 0.9% for the first, 4.6% for the second.

For `COC(=O)[C@H]1C[C@@]2(C(=O)Nc3ccccc32)[C@H](c2ccccc2)N1`, the Activity was 2.9%.
